What all share (assay): DTP human tumour cell line panel, 48 h
The test system of assay [1] is IGROV1 ovarian.
Assay [2] relates to MDA-MB-435.
In assay [3] the test system is NCI-H460 lung.
The subject of assay [4] is NCI-H522 lung.
The test system of assay [5] is NCI/ADR-RES ovarian.
The subject of assay [6] is OVCAR-5 ovarian.
In assay [7] the test system is SN12C renal.
Assay [8] concerns T-47D breast.
In assay [9] the test system is TK-10 renal.
Assay [10] concerns UACC-62 melanoma.

Structures are written as SMILES.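 Cultured in 96-well plates, cells were exposed to test compound for 48 hours across five concentrations. TGI marks complete inhibition of growth.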

A word on the TGI: it is the concentration at which net growth stops. Lower therefore signals more potent growth arrest. In the case of `CCN(CCCl)c1cc(CN(C)C)cc(NC(=O)c2ccc(C(=O)Nc3ccccc3)cc2)c1`, the concentration for total growth inhibition (TGI) turned out to be 0.448 µM in assay [1]; 0.613 µM in assay [2]; 1.27 µM in [3]; 0.317 µM in assay [4]; 11.4 µM in assay [5]; 4.5 µM in assay [6]. In addition, the concentration for total growth inhibition (TGI) in assay [7] was 5.21 µM; in [8] it was 9.91 µM; in assay [9] it was 7.57 µM; in [10] it was 4.03 µM.

With `C(#C[C@@]12CCC[C@@H]1N(Cc1ccccc1)CO2)c1ccc2c(c1)OCO2`, the TGI in assay [2], in assay [3], in assay [5], in assay [6], in [7] and in assay [8] was greater than 100 µM in each case. The compound further registered a TGI in [10] greater than 100 µM.

Take `O=C(c1cccc2cc(O)ccc12)c1cn(CCN2CCOCC2)c2ccccc12`: the TGI was 43.4 µM in [1]; 61.4 µM in assay [4]; 73.5 µM in assay [6]; greater than 100 µM in assay [7]; greater than 100 µM in [8]; 50.9 µM in assay [9]. Also, in [10], the TGI is 38.5 µM.

For `CC(C)(C)C(=O)CC(=O)C(F)(F)C(F)(F)C(F)(F)F.[Ag]`, the TGI is 26.5 µM in assay [1]; 33.5 µM in assay [2]; 46.9 µM in [3]; 48.6 µM in assay [5]; greater than 100 µM in assay [6]; 27.6 µM in assay [7]. Further, the results for the concentration for total growth inhibition (TGI) in [8], in assay [9] and in assay [10] were 55.2 µM, 32.1 µM and 32 µM, respectively.

In the case of `COc1ncc(C#CC(=O)c2ccccc2)c(OC)n1`, the TGI is 7.49 µM in [1]; 11.5 µM in assay [2]; 38 µM in assay [3]; 2.81 µM in [4]; 7.73 µM in assay [5]; 12.8 µM in assay [6]. Besides, the figures for the TGI in [7], in [8] and in assay [10] were 2.78 µM, 15.8 µM and 8.78 µM, respectively.

As to `COc1ccc2c(c1)OC1c3ccccc3OCC21` (stereo not drawn), the TGI in assay [1], in assay [2], in [3], in assay [5], in [6] and in assay [7] was greater than 100 µM in each case. For the same compound, the TGI in assay [8], in [9] and in assay [10] was greater than 100 µM in each case.

As for `CC(C)C1=CC23CCC4C(C)(C(=O)O)CCCC4(C)C2CC1C1C(=O)N(c2cccc(N4C(=O)C5C6CC7C8(C)CCCC(C)(C(=O)O)C8CCC7(C=C6C(C)C)C5C4=O)c2)C(=O)C13` (stereo not drawn), the TGI in [2] came out at 15.2 µM; in assay [4], 29.7 µM; in assay [6], 20 µM; in assay [7] it was 27.1 µM; in [8], 33.7 µM; in assay [9], 30.4 µM. The TGI in assay [10] stood at 80.1 µM.

In the case of `O=C1NC(N2CCCCC2)=N/C1=C\c1ccccc1`, the TGI in [1], in assay [2], in assay [4], in [5], in assay [6] and in assay [7] was greater than 100 µM in each case. In addition, the concentration for total growth inhibition (TGI) in assay [8], in assay [9] and in [10] was greater than 100 µM throughout.

`COC(=O)/C=C/c1cnc2c(c1)oc(=O)n2C`: the TGI in assay [1], in assay [2], in assay [3], in assay [5], in [6] and in [7] was greater than 100 µM each time. Moreover, the concentration for total growth inhibition (TGI) in [8], in [9] and in [10] was greater than 100 µM each time.

In the case of `C/C(=N\Nc1nc2ccccc2o1)c1cc2ccccc2cn1`, the TGI in assay [2] was greater than 43.4 µM; in [3], greater than 100 µM; in assay [6], 16.4 µM; in assay [7], 33.7 µM; in [8], greater than 100 µM; in assay [10], 2.53 µM.

As for `COc1ccc2c(c1)C(=O)[C@@](Nc1ccc(C=O)cc1)(OC)[C@@](OC)(c1ccc([N+](=O)[O-])cc1)O2`, the total growth inhibition concentration (TGI) in assay [1], in assay [2], in [3], in assay [5], in [6] and in assay [7] was greater than 10 µM in each case. Moreover, the TGI in [8], in assay [9] and in [10] was greater than 10 µM each time.

Consider `O=C1CSC(c2cccc(Oc3ccccc3)c2)N1c1cccc(Cl)c1Cl` (stereo not drawn), for which the TGI is 56.1 µM in [2]; 71.5 µM in assay [3]; 61.1 µM in [4]; 59.9 µM in assay [5]; greater than 100 µM in assay [6]; greater than 100 µM in assay [7]. Further, the TGI in assay [8] is greater than 100 µM; in assay [9] it was greater than 100 µM; in assay [10] it was 46.9 µM.

For `COC(=O)[C@]1(Cc2ccc3ccccc3c2)CCCCCCN1C(=O)c1ccccc1`, the TGI is greater than 58.2 µM in [1]; greater than 53.1 µM in [2]; greater than 50.2 µM in [3]; greater than 49.7 µM in assay [5]; greater than 65 µM in [6]; greater than 51.5 µM in assay [7]. Besides, the TGI in assay [8] is greater than 54.3 µM; in assay [9], greater than 80.8 µM; in assay [10] it was greater than 51.3 µM.

For the compound `C=CC(C)(C)n1cc(C2=C(O)C(=O)C(c3c(CC=C(C)C)[nH]c4ccccc34)=C(O)C2=O)c2ccccc21`, the TGI in [1] amounted to 2.45 µM; in assay [2], 2.38 µM; in assay [3] it was 4.36 µM; in assay [4], 6.18 µM; in assay [5] it was 9.09 µM; in assay [6] it was 10.1 µM. Also, the TGI in assay [7] is 3.6 µM; in assay [8], 7.59 µM; in [10] it was 1.18 µM.

These data come from PubChem BioAssay (NCI).
